In ChEMBL document CHEMBL1201862, “PubChem BioAssay data set” (2004):
The source made the active and inactive calls.

Tests used:
[1] = molecular target: E3 ubiquitin-protein ligase Mdm2 (Homo sapiens, UniProt Q00987); test: MDM2-luc reporter signal enhancers, multi-concentration potency testing, MDM2 ubiquitin-protein ligase inhibitor program, whole-cell format, luminescence detection, 384-well microplate (AID 1394); assay type: functional;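 also: MDM2 E3 inhibitors raise luminescence so EC50 is for signal enhancement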
[2] = viability of PTEN-deleted HCT116 cells – cell-based, HCT116 PTEN knockout, dose response (AID 1047); assay type: functional;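 also: HCT116 colon tumor cells with PTEN knocked out; cells exposed to compound for 60 hours before readout; potency for loss of cell viability measured by luminescence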
[3] = viability of HCT116 lacking mutant beta-catenin – cell-based, human colon tumor, dose response (AID 1045); assay type: functional;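 also: HCT116 colon tumor cells with beta catenin knocked out; cells exposed to compound for 60 hours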
[4] = Luminescence Cell-Based Dose Retest to Confirm Inhibitors of Cancer Stem Cells. [Related pubchem assays (depositor defined):AID2717, AID2721]; assay type: functional; settings: Homo sapiens
[5] = molecular target: T1, Microphthalmia-associated transcription factor (Homo sapiens, UniProt O75030); test: reducers of TRPM1 reporter luminescence, concentration series – cell-based, SK-MEL-5, cherry-picked, set 3, MITF inhibitor project, dose response (AID 493073); assay type: functional;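 also: SK-MEL-5 melanoma cells with luciferase driven by the MITF target TRPM1 promoter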
T1 sequence (O75030 whole entry): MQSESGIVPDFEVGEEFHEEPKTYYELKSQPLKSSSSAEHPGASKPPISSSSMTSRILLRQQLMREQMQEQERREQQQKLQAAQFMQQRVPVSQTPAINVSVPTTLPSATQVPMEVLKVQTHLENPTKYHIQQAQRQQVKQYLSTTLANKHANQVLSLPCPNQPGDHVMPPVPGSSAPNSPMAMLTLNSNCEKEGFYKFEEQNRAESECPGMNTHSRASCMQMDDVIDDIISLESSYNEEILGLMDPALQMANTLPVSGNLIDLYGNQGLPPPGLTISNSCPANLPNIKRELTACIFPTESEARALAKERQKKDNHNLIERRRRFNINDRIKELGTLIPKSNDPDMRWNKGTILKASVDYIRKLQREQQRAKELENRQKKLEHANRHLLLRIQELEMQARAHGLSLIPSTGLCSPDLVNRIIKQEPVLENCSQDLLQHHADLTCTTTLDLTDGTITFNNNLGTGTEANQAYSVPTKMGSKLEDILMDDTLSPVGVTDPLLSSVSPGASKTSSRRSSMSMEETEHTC

[6] = Fluorescence-based cell-based high throughput dose response assay for inhibitors of the interaction of nucleotide-binding oligomerization domain containing 2 (NOD2) and the receptor-interacting serine-threonine kinase 2 (RIPK2).; assay type: functional; settings: Homo sapiens
[7] = reduced cellular PGC1a acetyl-lysine signal – cell-based, cherry-picked samples, dose response (AID 720514); assay type: functional;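 also: potency may reflect raised or lowered acetylation signal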
[8] = molecular target: T2, Calpain-2 catalytic subunit (Sus scrofa, UniProt P43367); test: m-calpain protease blockers, concentration series – biochemical, fluorogenic peptide substrate, dose response (AID 1420); assay type: functional
T2 sequence (P43367 whole entry): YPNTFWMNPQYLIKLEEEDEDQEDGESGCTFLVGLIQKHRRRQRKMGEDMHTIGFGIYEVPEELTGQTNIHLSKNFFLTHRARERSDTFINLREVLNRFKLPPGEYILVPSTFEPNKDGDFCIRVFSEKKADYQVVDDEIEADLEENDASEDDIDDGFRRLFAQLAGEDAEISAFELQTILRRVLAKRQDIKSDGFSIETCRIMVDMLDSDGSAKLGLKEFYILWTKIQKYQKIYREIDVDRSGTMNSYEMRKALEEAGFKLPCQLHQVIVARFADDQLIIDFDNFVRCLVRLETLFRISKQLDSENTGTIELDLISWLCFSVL

[9] = molecular target: T3, Mannose-6-phosphate isomerase (Homo sapiens, UniProt P34949); test: MPI inhibition at elevated mannose 6-phosphate – biochemical, fluorescence intensity, high mannose 6-phosphate, primary screen (AID 1220)
T3 sequence (P34949 whole entry): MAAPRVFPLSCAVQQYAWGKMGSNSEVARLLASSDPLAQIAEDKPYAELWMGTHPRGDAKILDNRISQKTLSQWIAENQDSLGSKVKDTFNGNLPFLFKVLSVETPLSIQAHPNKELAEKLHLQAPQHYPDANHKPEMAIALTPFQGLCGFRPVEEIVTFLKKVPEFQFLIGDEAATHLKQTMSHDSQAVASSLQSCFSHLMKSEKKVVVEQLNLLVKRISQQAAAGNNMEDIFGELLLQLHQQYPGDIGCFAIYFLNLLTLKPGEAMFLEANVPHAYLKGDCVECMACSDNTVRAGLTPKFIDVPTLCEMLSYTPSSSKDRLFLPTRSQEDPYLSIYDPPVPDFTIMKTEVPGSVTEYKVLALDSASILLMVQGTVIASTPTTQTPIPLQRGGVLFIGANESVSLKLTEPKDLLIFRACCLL

Hexokinase HKDC1 = molecular target: T4, Hexokinase HKDC1 (Homo sapiens, UniProt Q2TB90); test: inhibition of HKDC1 glucose phosphorylation – biochemical, W721R variant, dose response (AID 504729); assay type: functional
T4 sequence (Q2TB90 whole entry): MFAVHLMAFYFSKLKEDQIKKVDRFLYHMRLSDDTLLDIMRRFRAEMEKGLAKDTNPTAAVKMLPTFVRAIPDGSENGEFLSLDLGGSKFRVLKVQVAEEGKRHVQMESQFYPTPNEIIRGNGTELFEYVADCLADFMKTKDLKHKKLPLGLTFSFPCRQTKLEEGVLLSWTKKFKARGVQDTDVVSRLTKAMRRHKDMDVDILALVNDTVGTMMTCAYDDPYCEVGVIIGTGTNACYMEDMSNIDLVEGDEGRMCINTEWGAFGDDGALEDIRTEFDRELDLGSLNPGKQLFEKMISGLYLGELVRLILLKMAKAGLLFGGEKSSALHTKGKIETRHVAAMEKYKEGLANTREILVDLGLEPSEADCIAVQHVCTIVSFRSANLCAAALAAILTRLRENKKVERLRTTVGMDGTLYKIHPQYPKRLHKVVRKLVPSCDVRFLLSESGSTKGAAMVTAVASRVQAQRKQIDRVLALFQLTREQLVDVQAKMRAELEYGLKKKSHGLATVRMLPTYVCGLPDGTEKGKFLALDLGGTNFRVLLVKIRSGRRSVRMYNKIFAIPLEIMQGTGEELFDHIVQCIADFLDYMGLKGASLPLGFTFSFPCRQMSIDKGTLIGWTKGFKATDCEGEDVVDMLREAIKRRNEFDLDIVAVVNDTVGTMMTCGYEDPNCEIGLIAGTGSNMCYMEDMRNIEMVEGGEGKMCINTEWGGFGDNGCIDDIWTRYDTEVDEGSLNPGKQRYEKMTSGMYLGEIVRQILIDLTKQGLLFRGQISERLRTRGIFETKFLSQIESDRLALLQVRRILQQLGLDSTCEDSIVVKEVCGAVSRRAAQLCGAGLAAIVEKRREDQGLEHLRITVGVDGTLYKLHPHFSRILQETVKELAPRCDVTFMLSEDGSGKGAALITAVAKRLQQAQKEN

HEK293 = test: EBV LMP1 TES2 canonical NF-kB signalling blockers – cell-based, HEK293, luciferase, cherry-pick, dose response (AID 588343); assay type: functional; settings: Homo sapiens
[10] = molecular target: DNA (cytosine-5)-methyltransferase 1 (Homo sapiens, UniProt P26358); test: inhibition of DNA methylation by DNMT1 – biochemical, fluorescent molecular beacon, confirmation (AID 602386); assay type: functional
[11] = molecular target: Hepatocyte nuclear factor 4-alpha (Homo sapiens, UniProt P41235); assay type: functional, cell-based;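 also: biochemical luminescence-based dose-response counterscreen measuring inhibition of HNF4 dimerization, run alongside a screen for blockers of ABHD5–perilipin-5 interaction; split luciferase complementation of HNF4 fusion proteins in cell lysate measuring dimerization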
[12] = IC50 of Artemis nuclease activity blockers – biochemical, fluorescence intensity, dose response (AID 720701); assay type: functional;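 also: Artemis endonuclease enzyme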
Protein Tat = Protein Tat (Human immunodeficiency virus type 1 group M subtype B (isolate HXB2)(HIV-1), UniProt P04608); assay type: functional;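 also: tat binding to TAR RNA read out by fluorescence polarization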
Kallikrein-7 = Kallikrein-7 (Homo sapiens, UniProt P49862); test: Fluorescence Intensity-based biochemical primary high throughput dose response assay to identify activators of kallikrein-7 (K7) zymogen.
[13] = molecular target: NAD-dependent protein deacylase sirtuin-5, mitochondrial (Homo sapiens, UniProt Q9NXA8); test: sirtuin-5 deacylation blockers, concentration series – biochemical, fluorescence imaging, cherry-pick, set 5, dose response (AID 720591);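 also: desuccinylation of succinyl peptide AMC substrate read as fluorescence after trypsin release; potency of inhibitors that lower fluorescence and may act on trypsin instead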
[14] = intracellular Trypanosoma cruzi inhibitors in host cells – cell-based, plate reader, cherry-pick samples, set 3, dose response (AID 651818); assay type: functional;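 also: compounds incubated with infected cells for about four days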
[15] = molecular target: Endoplasmic reticulum aminopeptidase 2 (Homo sapiens, UniProt Q6P179); test: inhibition of ERAP2 arginine-AMC cleavage – biochemical, fluorescence plate reader, cherry-picked, set 2, selectivity assay for selective ERAP1 modulator project, dose response (AID 743320)
[16] = inhibition of mouse IRAP aminopeptidase activity – biochemical, Leu-AMC fluorescence, cherry-picked samples, set 2, selectivity assay for ERAP1 modulator project, dose response (AID 743340)

Sequence of Protein Tat (P04608 whole entry): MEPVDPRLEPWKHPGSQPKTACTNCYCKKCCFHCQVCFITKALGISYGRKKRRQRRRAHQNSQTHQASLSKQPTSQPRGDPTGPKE
Sequence of DNA (cytosine-5)-methyltransferase 1 (P26358 whole entry, the tested form may be a part): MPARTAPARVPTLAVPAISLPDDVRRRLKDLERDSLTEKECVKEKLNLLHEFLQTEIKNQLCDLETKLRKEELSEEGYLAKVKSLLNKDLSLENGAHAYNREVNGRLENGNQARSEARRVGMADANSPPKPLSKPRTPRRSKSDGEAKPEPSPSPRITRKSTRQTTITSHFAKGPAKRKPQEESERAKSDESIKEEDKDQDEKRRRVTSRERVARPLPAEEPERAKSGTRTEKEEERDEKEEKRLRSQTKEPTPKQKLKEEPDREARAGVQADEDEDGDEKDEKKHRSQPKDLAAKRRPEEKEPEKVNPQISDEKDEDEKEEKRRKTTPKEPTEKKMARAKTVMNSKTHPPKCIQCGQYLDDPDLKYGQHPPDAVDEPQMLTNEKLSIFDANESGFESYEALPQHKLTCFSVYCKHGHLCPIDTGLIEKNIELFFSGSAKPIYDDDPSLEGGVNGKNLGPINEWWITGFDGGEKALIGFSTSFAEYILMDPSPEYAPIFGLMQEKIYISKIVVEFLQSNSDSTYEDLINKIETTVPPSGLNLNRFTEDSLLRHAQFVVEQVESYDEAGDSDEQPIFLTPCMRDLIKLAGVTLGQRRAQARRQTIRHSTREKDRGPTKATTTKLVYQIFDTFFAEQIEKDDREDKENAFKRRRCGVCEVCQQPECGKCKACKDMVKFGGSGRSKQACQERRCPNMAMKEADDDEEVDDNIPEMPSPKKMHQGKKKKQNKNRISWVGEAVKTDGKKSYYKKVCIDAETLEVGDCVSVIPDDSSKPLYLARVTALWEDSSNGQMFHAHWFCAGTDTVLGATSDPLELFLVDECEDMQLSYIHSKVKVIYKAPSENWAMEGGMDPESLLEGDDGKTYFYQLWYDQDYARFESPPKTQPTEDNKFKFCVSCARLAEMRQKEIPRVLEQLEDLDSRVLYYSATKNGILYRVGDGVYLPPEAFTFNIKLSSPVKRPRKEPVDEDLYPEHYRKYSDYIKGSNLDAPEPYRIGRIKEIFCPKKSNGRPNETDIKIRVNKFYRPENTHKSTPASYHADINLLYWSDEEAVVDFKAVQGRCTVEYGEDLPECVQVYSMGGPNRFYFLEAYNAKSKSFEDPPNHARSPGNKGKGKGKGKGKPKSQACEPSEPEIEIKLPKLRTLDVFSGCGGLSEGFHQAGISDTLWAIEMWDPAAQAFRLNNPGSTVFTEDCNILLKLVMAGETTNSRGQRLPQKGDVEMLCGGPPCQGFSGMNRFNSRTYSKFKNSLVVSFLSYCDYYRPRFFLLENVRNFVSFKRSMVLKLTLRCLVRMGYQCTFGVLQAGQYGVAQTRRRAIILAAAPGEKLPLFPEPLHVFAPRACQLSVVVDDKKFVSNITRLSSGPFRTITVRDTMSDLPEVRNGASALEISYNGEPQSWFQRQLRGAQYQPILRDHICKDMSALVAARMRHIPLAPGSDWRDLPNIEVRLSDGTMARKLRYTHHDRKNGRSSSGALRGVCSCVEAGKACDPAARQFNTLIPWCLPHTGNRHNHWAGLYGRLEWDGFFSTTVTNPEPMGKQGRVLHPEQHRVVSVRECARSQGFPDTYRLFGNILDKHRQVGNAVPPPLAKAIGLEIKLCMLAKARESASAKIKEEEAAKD
Sequence of Kallikrein-7 (P49862 whole entry): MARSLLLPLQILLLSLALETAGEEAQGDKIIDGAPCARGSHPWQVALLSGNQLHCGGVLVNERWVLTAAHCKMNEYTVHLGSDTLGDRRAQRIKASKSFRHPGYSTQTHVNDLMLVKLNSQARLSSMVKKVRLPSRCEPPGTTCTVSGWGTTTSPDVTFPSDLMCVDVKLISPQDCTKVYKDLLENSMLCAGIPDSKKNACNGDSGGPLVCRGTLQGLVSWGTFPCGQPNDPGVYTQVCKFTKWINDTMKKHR
Sequence of E3 ubiquitin-protein ligase Mdm2 (Q00987 whole entry): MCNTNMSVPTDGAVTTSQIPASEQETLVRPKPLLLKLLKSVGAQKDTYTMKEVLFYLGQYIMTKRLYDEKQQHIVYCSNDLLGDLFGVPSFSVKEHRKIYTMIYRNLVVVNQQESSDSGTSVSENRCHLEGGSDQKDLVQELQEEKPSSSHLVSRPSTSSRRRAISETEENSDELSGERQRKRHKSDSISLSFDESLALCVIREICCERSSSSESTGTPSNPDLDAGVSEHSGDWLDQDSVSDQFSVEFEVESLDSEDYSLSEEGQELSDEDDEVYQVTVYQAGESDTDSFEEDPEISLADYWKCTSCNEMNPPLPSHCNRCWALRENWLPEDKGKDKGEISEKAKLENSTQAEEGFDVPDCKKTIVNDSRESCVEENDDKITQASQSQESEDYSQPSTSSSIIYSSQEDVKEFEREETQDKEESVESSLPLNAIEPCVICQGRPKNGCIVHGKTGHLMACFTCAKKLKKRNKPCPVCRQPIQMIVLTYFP
Sequence of Hepatocyte nuclear factor 4-alpha (P41235 whole entry, the tested form may be a part): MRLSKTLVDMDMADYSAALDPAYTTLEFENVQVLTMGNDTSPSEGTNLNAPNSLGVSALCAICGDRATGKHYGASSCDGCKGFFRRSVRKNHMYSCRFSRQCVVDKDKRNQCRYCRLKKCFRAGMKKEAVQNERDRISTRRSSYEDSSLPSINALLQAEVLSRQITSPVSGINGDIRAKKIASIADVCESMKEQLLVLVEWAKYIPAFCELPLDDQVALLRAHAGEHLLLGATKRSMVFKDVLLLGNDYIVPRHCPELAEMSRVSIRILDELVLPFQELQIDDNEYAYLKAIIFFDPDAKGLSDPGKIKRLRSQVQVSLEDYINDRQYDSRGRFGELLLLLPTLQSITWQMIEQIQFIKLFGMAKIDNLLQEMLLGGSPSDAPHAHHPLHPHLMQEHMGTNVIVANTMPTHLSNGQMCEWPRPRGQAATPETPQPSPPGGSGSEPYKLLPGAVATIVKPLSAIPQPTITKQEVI
Sequence of Endoplasmic reticulum aminopeptidase 2 (Q6P179 whole entry): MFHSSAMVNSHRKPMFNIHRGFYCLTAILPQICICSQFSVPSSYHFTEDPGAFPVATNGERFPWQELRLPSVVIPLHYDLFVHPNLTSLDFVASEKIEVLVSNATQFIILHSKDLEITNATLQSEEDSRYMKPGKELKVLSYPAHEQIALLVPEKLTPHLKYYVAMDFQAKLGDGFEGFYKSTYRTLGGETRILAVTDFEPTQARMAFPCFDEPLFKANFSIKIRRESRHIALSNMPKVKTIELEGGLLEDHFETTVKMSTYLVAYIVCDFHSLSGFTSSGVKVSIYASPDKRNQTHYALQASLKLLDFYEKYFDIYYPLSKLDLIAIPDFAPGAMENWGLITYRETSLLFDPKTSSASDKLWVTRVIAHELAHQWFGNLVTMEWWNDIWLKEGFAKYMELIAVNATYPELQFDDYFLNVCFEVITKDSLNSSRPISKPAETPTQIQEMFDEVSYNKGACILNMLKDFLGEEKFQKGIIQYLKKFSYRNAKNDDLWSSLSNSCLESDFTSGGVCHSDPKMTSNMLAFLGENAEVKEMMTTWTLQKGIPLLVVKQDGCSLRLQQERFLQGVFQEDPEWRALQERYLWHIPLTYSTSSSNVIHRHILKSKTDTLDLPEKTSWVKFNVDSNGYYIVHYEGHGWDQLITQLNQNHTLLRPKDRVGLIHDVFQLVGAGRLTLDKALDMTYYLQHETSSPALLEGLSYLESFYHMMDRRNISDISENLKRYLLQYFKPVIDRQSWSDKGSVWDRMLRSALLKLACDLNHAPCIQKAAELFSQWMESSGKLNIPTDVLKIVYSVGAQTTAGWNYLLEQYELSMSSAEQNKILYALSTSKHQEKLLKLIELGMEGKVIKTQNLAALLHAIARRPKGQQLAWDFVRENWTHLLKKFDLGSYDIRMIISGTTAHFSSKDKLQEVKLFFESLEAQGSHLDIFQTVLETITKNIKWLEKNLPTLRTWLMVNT
Sequence of NAD-dependent protein deacylase sirtuin-5, mitochondrial (Q9NXA8 whole entry): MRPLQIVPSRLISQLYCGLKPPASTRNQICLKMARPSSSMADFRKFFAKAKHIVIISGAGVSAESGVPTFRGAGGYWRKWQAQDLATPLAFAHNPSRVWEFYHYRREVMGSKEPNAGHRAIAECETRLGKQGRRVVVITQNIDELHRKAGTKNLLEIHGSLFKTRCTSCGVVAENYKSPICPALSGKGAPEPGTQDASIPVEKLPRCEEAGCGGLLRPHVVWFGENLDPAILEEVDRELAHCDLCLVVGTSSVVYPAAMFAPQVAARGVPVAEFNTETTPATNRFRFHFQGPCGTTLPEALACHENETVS

With O=C(Cn1ncc(Cl)c(Cl)c1=O)NCC1CCCCC1 as the compound, how does the EC50 [1] read?
Its EC50 is 1.89 µM (active).

What about the EC50 [2] of the same compound?
Its EC50 is 2.58 µM (active).

And the EC50 [3]?
Its EC50 is 1.44 µM (active).

What about the AC50 [4] of the same compound?
The AC50 was 2.83 µM (active).

What about the AC50 [5] of the same compound?
Its AC50 is 7.39 µM (active).

And the IC50 [6]?
Its IC50 is 3.98 µM (active).

What about the AC50 [7] of the same compound?
The AC50 was 3.97 µM (active).

What does the source list for Cc1oc2c(c1C(=O)c1ccc(Cl)cc1)C(=O)C(=O)c1ccccc1-2?
EC50 [2]: 2.63 µM (active); IC50 [8]: < 0.4 µM (not active); EC50 [3]: 2.36 µM (active); IC50 [9]: > 50 µM (not active); IC50 (Hexokinase HKDC1): 8.83 µM (active); AC50 (HEK293): 11.7 µM (active); IC50 [10]: 6.05 µM (active); IC50 [11]: 3.58 µM (active); IC50 [12]: 1.12 µM (active)

Which IC50 (Protein Tat) does the source give for COc1ccc(C2CC(=O)Oc3cc(OC)ccc32)cc1 (configuration not stated) here?
The IC50 was > 100 µM (active).

With CCNC(=O)/C(C#N)=C/c1c(N2CCN(c3ccccc3)CC2)nc2ccccn2c1=O as the compound, how does the EC50 (Kallikrein-7) read?
Its EC50 is 34.8 µM (inactive).

Which AC50 [13] does the source give for O=C(O)CCNc1nc(-c2ccccc2)nc2ccccc12 here?
Its AC50 is 5.41 µM (active).

With C[C@H](CO)N1C[C@H](C)[C@@H](CN(C)CC2CC2)Oc2c(NC(=O)Nc3ccc(C(F)(F)F)cc3)cccc2C1=O as the compound, how does the AC50 [14] read?
Its AC50 is 1.87 µM (active).

What about the AC50 [15] of the same compound?
Its AC50 is > 22 µM (inactive).

And the AC50 [16]?
The AC50 was 16.9 µM (active).
